Reference: BindingDB's records for doi:10.1016/j.bmcl.2020.126986 (Abbvie, 2020)

Tests used:
[1] = Inhibition of NS5B polymerase in HCV genotype 1a H77 infected in human HuH7 replicon cells assessed as inhibition of viral replication after 3 days by luciferase reporter gene assay
[2] = Inhibition of NS5B polymerase in HCV genotype 1b Con1 infected in human HuH7 replicon cells assessed as inhibition of viral replication after 3 days by luciferase reporter gene assay

| Compound | EC50 [1] | EC50 [2] |
| --- | --- | --- |
| CC(C)OC(=O)[C@H](C)N[P@](=O)(OC[C@H]1O[C@@H](n2ccc(=O)[nH]c2=O)[C@](Cl)(Br)[C@@H]1OC(=O)[C@@H](N)C(C)C)Oc1cccc2ccccc12 | 0.094 µM | 0.099 µM |
| CC(C)C(=O)OC[C@H](C)NP(=O)(OC[C@H]1O[C@@H](n2ccc(=O)[nH]c2=O)[C@](Cl)(Br)[C@@H]1O)Oc1ccccc1 (stereo partly drawn) | 0.317 µM | 0.455 µM |
| COCC(=O)OC[C@H](C)NP(=O)(OC[C@H]1O[C@@H](n2ccc(=O)[nH]c2=O)[C@](Cl)(Br)[C@@H]1O)Oc1ccccc1 (stereo partly drawn) | 2.5 µM | 3.04 µM |
| CC(C)OC(=O)C(C)(C)NP(=O)(OC[C@H]1O[C@@H](n2ccc(=O)[nH]c2=O)[C@](Cl)(Br)[C@@H]1O)Oc1ccccc1 (stereo partly drawn) | 1.09 µM | 1.38 µM |
| CC(C)OC(=O)[C@H](C)N[P@](=O)(OC[C@H]1O[C@@H](n2ccc(=O)[nH]c2=O)[C@](Cl)(Br)[C@@H]1O)Oc1cccc2ccccc12 | 0.106 µM | 0.139 µM |
| COCC(C)C(=O)OC[C@H](C)NP(=O)(OC[C@H]1O[C@@H](n2ccc(=O)[nH]c2=O)[C@](Cl)(Br)[C@@H]1O)Oc1ccccc1 (stereo partly drawn) | 0.592 µM | 0.522 µM |
| CC(C)OC(=O)[C@H](C)N[P@](=O)(OC[C@H]1O[C@@H](n2ccc(=O)[nH]c2=O)[C@](Cl)(Br)[C@@H]1OC(=O)[C@@H](N)C(C)C)Oc1ccccc1 | 0.156 µM | 0.167 µM |
| CCOC(=O)C(C)(C)NP(=O)(OC[C@H]1O[C@@H](n2ccc(=O)[nH]c2=O)[C@](Cl)(Br)[C@@H]1O)Oc1ccccc1 (stereo partly drawn) | 0.96 µM | 1.17 µM |
| COc1cccc(O[P@](=O)(N[C@@H](C)C(=O)OC(C)C)OC[C@H]2O[C@@H](n3ccc(=O)[nH]c3=O)[C@](Cl)(Br)[C@@H]2O)c1 | 0.098 µM | 0.127 µM |

The next lines start with the values.

| EC50 [1] | EC50 [2] | Compound |
| --- | --- | --- |
| 0.298 µM | 0.301 µM | CCOC(=O)[C@H](C)N[P@](=O)(OC[C@H]1O[C@@H](n2ccc(=O)[nH]c2=O)[C@](Cl)(Br)[C@@H]1O)Oc1ccccc1 |
| 0.414 µM | 0.387 µM | COCC(C)OC(=O)[C@H](C)NP(=O)(OC[C@H]1O[C@@H](n2ccc(=O)[nH]c2=O)[C@](Cl)(Br)[C@@H]1O)Oc1ccccc1 (stereo partly drawn) |
| 1.21 µM | 1.19 µM | CCOC(=O)[C@H](C)N[P@@](=O)(OC[C@H]1O[C@@H](n2ccc(=O)[nH]c2=O)[C@](Cl)(Br)[C@@H]1O)Oc1ccccc1 |
| 0.114 µM | 0.147 µM | CC(C)OC(=O)[C@H](C)N[P@](=O)(OC[C@H]1O[C@@H](n2ccc(=O)[nH]c2=O)[C@](Cl)(Br)[C@@H]1O)Oc1ccccc1 |
| 0.415 µM | 0.515 µM | CC(C)OC(=O)[C@H](C)N[P@@](=O)(OC[C@H]1O[C@@H](n2ccc(=O)[nH]c2=O)[C@](Cl)(Br)[C@@H]1O)Oc1ccccc1 |
